Measured values from US11331299B2, “Medicinal use of serrulatane diterpenes” (The University of Sydney, priority 2016, dated 2022).
Read-outs that look alike come from different tables or passages of the source.

Experiments:
[1] = system: Toll-like receptor 4 (TLR4) activation on human peripheral blood mononuclear cells (PBMC's); assay: TLR4 inhibition assay, LPS-induced cytokine release; assay type: cell-based; settings: for IC50: Homo sapiens, PBMC, 24 h, 24-hour LPS stimulation
[2] = molecular target: T1, enzymes (Bioprint panel) (Homo sapiens, UniProt O00408); assay: biochemical; settings: PDE2A1 (h); 10 μM; read-out: % Inhibition of Control Values
T1 construct: other: PDE2A1 (h); 10 μM; PDE2A1 (h)
T1 sequence (O00408 other isoform, or with tags, fused parts or gaps): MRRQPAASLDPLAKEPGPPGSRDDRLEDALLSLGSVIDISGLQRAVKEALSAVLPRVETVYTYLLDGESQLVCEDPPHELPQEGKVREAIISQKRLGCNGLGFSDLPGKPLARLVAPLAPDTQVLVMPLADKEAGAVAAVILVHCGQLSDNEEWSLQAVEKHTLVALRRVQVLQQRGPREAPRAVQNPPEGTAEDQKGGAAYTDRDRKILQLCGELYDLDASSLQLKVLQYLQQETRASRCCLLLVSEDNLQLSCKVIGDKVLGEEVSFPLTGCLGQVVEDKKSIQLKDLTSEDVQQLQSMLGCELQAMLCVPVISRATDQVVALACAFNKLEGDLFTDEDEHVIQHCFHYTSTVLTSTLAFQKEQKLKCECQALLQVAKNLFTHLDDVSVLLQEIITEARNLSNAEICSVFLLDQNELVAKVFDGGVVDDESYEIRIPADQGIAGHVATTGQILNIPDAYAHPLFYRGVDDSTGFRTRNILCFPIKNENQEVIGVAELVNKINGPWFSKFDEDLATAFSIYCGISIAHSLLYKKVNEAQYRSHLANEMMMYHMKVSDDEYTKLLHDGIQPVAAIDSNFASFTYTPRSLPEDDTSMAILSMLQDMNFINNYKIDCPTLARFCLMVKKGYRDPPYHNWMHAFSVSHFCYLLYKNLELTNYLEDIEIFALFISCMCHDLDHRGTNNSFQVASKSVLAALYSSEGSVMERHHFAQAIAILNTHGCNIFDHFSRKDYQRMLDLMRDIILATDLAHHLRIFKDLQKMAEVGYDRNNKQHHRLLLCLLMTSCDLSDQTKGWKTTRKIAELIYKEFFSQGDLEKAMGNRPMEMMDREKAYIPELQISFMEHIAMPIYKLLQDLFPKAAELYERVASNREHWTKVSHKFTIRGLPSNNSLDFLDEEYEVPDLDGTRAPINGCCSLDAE

[3] = molecular target: enzymes (Bioprint panel) (Homo sapiens, UniProt P03956); assay: biochemical; settings: MMP-1 (h); 10 μM; read-out: % Inhibition of Control Values
[4] = molecular target: enzymes (Bioprint panel) (Homo sapiens, UniProt P12821); assay: biochemical; settings: ACE (h); 10 μM; read-out: % Inhibition of Control Values
Chain of enzymes (Bioprint panel) (Homo sapiens, UniProt P12821) (P12821 30-1306): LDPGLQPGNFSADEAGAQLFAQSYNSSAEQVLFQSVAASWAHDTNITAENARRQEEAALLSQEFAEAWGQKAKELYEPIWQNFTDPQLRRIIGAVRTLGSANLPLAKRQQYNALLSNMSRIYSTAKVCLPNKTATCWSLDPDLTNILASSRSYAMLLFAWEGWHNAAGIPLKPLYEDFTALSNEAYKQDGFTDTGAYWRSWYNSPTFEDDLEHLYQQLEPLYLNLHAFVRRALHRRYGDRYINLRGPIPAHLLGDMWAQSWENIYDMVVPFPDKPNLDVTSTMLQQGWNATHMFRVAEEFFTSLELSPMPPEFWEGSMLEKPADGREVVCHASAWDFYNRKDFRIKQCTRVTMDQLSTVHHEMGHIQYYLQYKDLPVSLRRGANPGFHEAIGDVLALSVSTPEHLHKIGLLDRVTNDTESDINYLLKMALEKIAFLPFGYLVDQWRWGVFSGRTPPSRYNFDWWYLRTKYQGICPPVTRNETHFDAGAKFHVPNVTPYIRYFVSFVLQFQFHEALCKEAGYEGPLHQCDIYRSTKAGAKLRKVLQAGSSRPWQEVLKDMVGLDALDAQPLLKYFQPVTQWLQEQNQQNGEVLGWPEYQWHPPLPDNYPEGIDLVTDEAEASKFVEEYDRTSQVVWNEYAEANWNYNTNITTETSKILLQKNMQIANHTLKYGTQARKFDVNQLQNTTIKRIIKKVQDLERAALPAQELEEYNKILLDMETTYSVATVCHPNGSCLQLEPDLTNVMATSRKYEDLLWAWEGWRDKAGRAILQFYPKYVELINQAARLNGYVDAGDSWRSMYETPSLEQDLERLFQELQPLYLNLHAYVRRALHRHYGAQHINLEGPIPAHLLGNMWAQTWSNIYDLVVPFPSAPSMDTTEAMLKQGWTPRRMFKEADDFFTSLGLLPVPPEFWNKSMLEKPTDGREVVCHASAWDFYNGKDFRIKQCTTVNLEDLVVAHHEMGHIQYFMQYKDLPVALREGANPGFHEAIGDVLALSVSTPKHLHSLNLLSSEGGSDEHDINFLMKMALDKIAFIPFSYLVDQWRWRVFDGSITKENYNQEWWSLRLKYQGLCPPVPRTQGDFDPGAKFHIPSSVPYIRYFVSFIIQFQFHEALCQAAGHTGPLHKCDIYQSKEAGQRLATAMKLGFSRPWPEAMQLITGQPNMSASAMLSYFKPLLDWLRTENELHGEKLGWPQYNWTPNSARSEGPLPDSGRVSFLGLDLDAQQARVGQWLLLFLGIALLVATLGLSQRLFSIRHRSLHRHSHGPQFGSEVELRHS

[5] = molecular target: enzymes (Bioprint panel) (Homo sapiens, UniProt P17948); assay: biochemical; settings: FLT-1 kinase (h) (VEGFR1); 10 μM; read-out: % Inhibition of Control Values
[6] = molecular target: enzymes (Bioprint panel) (Homo sapiens, UniProt P22303); assay: biochemical; settings: acetylcholinesterase (h); 10 μM; read-out: % Inhibition of Control Values
[7] = molecular target: enzymes (Bioprint panel) (Homo sapiens, UniProt P28482); assay: biochemical; settings: ERK2 (h) (P42mapk); 10 μM; read-out: % Inhibition of Control Values
Chain of enzymes (Bioprint panel) (Homo sapiens, UniProt P28482) (P28482 whole entry): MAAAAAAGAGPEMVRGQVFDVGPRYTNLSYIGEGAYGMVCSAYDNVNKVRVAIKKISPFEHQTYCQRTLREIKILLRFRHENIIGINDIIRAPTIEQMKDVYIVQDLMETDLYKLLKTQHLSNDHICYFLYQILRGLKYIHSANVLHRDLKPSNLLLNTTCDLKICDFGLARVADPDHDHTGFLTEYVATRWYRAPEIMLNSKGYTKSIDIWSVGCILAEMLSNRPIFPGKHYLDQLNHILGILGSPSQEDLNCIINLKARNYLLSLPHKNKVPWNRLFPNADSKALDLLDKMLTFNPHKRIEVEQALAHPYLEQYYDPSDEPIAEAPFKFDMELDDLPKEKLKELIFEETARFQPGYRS

[8] = molecular target: enzymes (Bioprint panel) (Homo sapiens, UniProt P42574); assay: biochemical; settings: caspase-3 (h); 10 μM; read-out: % Inhibition of Control Values
Chain of enzymes (Bioprint panel) (Homo sapiens, UniProt P42574) (P42574 29-277): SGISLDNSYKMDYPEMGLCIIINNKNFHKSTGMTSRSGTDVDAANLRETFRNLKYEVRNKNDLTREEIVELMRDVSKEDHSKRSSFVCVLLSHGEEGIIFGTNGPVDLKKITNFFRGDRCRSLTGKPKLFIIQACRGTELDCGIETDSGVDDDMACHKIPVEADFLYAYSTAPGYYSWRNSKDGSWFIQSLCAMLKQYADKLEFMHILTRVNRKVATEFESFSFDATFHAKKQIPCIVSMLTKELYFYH

[9] = molecular target: enzymes (Bioprint panel) (Homo sapiens, UniProt P43403); assay: biochemical; settings: ZAP70 kinase (h); 10 μM; read-out: % Inhibition of Control Values
Chain of enzymes (Bioprint panel) (Homo sapiens, UniProt P43403) (P43403 whole entry): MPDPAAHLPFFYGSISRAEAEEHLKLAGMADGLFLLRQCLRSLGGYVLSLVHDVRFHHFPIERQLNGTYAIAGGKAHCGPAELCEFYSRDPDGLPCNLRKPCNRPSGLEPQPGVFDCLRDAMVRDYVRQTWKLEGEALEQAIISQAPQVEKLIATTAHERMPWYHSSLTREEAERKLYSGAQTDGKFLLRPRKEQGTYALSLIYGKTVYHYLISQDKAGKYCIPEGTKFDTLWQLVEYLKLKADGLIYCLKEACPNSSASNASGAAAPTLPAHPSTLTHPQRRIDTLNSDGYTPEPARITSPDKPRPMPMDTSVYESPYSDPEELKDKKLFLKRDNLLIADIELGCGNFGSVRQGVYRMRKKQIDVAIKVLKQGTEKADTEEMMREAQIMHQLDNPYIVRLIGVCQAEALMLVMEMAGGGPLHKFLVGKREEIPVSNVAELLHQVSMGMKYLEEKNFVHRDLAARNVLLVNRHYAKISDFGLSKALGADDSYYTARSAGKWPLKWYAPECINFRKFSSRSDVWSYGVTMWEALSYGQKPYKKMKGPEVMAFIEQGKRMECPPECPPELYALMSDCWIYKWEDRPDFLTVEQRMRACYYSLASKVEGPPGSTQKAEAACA

[10] = molecular target: enzymes (Bioprint panel) (Homo sapiens, UniProt Q16539); assay: biochemical; settings: p38alpha kinase (h); 10 μM; read-out: % Inhibition of Control Values
Chain of enzymes (Bioprint panel) (Homo sapiens, UniProt Q16539) (Q16539 whole entry): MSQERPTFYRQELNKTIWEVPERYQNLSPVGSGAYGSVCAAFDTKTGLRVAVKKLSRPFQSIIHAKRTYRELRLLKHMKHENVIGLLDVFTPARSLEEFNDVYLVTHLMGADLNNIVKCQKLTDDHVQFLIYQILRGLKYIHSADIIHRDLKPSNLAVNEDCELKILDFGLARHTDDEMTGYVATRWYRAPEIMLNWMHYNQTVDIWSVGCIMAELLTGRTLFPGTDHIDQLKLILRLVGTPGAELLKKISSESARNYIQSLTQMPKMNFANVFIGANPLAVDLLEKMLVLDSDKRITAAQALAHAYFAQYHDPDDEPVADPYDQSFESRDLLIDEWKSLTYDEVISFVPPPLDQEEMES

[11] = molecular target: enzymes (Bioprint panel) (Mus musculus, UniProt P29477); assay: biochemical; settings: inducible NOS; 10 μM; read-out: % Inhibition of Control Values
Chain of enzymes (Bioprint panel) (Mus musculus, UniProt P29477) (P29477 whole entry): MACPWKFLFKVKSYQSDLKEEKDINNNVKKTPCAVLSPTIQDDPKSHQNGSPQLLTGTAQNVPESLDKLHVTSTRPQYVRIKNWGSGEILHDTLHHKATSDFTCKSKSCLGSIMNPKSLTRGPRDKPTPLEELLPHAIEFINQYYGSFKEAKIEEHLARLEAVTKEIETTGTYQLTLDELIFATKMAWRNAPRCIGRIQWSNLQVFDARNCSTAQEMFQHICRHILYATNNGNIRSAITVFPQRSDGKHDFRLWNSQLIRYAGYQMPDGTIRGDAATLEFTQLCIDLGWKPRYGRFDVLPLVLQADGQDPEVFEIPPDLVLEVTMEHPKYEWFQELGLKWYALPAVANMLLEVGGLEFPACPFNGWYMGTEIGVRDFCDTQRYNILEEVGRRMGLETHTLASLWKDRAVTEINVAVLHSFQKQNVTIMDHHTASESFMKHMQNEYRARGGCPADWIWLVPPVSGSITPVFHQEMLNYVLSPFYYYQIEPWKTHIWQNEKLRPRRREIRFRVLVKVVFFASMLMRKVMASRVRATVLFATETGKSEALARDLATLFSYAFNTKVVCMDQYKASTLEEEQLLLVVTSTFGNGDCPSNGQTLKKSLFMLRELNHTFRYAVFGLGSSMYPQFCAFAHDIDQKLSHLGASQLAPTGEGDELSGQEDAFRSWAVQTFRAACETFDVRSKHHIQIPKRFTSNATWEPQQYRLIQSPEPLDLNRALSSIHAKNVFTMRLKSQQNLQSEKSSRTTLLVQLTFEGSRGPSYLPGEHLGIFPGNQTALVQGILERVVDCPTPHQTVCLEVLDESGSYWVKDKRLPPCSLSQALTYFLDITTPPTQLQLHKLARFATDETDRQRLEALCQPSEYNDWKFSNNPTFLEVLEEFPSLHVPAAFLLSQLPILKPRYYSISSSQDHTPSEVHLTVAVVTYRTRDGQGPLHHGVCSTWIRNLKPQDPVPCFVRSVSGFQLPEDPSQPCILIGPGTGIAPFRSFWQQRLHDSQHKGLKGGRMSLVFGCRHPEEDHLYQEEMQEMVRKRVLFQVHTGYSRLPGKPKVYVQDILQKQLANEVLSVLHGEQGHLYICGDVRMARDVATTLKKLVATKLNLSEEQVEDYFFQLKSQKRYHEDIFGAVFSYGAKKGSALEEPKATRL

[12] = system: enzymes (Bioprint panel); assay: biochemical; settings: COMT (catechol- O-methyl transferase); 10 μM
[13] = system: human pancreatic carcinoma MIA PaCa-2; settings: for % T/C / % TGI / Tumor Volume, Mean: 100 mg/kg QWK x 3 IP
[14] = molecular target: T2, EHMT1 (h) (Homo sapiens, UniProt Q9H9B1); settings: read-out: Reference: IC50; cited from earlier work
T2 sequence (Q9H9B1 1-1298): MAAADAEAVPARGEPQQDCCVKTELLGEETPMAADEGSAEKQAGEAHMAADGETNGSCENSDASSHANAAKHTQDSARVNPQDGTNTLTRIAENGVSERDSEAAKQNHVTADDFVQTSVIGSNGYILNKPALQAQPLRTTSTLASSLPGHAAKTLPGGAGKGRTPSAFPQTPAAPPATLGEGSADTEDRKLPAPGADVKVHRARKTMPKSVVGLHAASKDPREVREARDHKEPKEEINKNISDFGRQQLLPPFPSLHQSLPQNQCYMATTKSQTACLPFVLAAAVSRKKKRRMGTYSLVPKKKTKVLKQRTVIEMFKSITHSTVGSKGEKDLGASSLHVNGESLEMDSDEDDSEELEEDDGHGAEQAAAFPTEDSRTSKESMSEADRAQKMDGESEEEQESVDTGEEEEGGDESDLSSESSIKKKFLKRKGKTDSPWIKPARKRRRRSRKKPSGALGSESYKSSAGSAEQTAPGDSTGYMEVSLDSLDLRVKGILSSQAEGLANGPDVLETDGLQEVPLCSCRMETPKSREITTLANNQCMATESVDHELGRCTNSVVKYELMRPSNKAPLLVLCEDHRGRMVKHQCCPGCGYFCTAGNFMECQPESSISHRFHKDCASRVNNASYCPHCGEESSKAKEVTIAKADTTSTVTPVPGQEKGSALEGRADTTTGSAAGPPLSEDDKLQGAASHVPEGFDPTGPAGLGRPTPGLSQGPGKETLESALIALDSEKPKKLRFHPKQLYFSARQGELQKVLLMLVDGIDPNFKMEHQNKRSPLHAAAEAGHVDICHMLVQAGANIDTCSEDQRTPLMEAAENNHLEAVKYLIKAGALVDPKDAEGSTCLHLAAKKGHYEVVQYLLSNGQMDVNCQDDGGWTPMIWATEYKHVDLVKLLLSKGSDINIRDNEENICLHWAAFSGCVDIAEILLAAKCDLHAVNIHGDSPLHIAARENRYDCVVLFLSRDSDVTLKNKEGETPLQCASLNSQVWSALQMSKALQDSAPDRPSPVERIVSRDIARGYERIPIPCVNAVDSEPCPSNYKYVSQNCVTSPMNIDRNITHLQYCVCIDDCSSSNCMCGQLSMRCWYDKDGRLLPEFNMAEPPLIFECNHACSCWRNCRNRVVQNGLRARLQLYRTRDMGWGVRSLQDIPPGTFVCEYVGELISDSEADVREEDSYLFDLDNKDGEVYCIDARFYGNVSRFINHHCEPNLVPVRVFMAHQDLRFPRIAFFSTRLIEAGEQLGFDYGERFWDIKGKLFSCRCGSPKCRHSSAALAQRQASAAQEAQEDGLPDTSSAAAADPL

## CC(C)=CCC[C@H](CO)[C@@H]1CC[C@@H](C)c2c1cc(C)c(O)c2O [Compound 1, 7,8,18-trihydroxyserrulat-14-ene]
[1]; read-out: IC50, LPS-induced IL-1β release
  IC50: 6.6 µM
[1]; read-out: IC50, LPS-induced IL-6 release
  IC50: 8.8 µM
[1]; read-out: IC50, LPS-induced IL-10 release
  IC50: 4.3 µM
[1]; read-out: IC50, LPS-induced TNFα release
  IC50: 8.9 µM
[1]; I-1β, human PBMC, read-out: LPS-induced cytokine IC50
  IC50: 6.6 µM
[1]; IL-6, human PBMC, read-out: LPS-induced cytokine IC50
  IC50: 8.8 µM
[1]; IL-10, human PBMC, read-out: LPS-induced cytokine IC50
  IC50: 4.3 µM
[1]; TNF-α, human PBMC, read-out: LPS-induced cytokine IC50
  IC50: 8.9 µM
[1]; top test concentration
  inhibition of the secretion of all cytokines: moderate to strong inhibition
[2]
  inhibition at 10 µM: 43%
[3]
  inhibition at 10 µM: -2%
[4]
  inhibition at 10 µM: 14%
[5]
  inhibition at 10 µM: 36%
[6]
  inhibition at 10 µM: 32%
[7]
  inhibition at 10 µM: 6%
[8]
  inhibition at 10 µM: -3%
[9]
  inhibition at 10 µM: 33%
[10]
  inhibition at 10 µM: 4%
[11]
  inhibition at 10 µM: -1%
[12]
  % Inhibition of Control Values: −6%
[13]; Day 1
  % T/C: 100%
  % TGI: 0%
  Tumor Volume, Mean: 90 mm3
[13]; Day 4
  % T/C: 96%
  % TGI: 4%
  Tumor Volume, Mean: 90 mm3
[13]; Day 8
  % T/C: 101%
  % TGI: −1%
  Tumor Volume, Mean: 133 mm3
[13]; Day 11
  % T/C: 107%
  % TGI: −7%
  Tumor Volume, Mean: 211 mm3
[13]; Day 15
  % T/C: 92%
  % TGI: 8%
  Tumor Volume, Mean: 345 mm3
[13]; in combination with gemcitabine
  anti-cancer activity: effective in combination with gemcitabine

## Nc1ncnc2c1ncn2[C@@H]1O[C@H](CSCC[C@H](N)C(=O)O)[C@@H](O)[C@H]1O [SAH]
[14]
  IC50: 0.18 µM
